According to paper PMC6825221, “In silico re-engineering of a neurotransmitter to activate KCNQ potassium channels in an isoform-specific manner” (Communications Biology, 2019):
“And” between values parts separate entries of the source, which are not always exact repeats. Equal values may be shown once. “Also recorded” adds a separate entry of the source.

Assays:
Assay type in all cases: cell-based
KCNQ2/3 = KCNQ2/3 (Homo sapiens, UniProt O43525+O43526); assay: TEVC of KCNQ2/3 channels expressed in Xenopus oocytes
Chain of KCNQ2/3 (O43525 whole entry): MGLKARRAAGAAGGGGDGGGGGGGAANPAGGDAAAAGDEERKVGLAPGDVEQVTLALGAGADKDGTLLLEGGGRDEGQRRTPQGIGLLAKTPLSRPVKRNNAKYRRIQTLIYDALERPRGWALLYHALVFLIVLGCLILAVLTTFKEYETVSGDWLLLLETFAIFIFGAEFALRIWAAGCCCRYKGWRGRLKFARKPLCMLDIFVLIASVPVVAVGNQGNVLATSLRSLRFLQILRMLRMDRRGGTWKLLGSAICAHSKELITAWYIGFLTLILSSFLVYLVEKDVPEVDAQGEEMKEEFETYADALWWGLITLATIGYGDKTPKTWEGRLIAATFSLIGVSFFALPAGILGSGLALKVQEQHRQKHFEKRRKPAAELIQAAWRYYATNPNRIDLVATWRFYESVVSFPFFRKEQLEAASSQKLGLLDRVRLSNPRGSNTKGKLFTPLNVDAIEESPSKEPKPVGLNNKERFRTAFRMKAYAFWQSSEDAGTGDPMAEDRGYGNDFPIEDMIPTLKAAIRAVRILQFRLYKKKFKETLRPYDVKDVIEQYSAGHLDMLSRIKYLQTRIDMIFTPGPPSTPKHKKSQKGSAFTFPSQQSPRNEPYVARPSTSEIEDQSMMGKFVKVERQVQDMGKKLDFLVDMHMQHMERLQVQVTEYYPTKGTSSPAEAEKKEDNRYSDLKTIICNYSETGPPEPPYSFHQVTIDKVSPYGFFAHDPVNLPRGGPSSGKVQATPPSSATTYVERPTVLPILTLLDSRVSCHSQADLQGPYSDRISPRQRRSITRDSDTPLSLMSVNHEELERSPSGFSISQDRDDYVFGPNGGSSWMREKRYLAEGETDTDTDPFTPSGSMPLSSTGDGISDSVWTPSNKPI
Chain of KCNQ2/3 (O43526 whole entry): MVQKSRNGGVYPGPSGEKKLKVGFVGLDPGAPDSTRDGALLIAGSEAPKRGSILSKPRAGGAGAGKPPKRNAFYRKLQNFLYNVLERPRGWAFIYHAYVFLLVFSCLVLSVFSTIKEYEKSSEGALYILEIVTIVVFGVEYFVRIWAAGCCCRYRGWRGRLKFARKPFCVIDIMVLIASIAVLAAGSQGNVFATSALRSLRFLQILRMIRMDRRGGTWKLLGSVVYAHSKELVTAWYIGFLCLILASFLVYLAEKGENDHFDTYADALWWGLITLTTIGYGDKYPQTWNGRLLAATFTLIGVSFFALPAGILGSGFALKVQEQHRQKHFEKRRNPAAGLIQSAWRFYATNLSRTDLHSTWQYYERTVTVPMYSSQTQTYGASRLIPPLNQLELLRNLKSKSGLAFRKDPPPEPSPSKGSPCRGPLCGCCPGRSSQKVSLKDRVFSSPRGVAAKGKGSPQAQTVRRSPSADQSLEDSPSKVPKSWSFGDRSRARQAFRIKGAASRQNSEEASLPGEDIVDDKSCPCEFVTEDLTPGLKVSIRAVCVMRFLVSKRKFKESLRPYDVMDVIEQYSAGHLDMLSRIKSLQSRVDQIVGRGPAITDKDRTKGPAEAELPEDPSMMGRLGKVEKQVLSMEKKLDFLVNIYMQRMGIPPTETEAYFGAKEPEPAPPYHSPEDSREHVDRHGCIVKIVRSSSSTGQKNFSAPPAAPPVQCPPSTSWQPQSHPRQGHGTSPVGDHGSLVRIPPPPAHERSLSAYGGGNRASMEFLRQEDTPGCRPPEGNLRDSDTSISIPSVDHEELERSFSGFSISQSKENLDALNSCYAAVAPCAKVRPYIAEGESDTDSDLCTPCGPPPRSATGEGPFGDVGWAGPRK
Description: We generated cRNA transcripts encoding human KCNQ1, KCNQ2, KCNQ3, KCNQ4, KCNQ5 or GLRA1 (NM_001146040) (GenScript, Piscataway, NJ, USA) by in vitro transcription using the T7 polymerase mMessage mMachine kit (Thermo Fisher Scientific), after vector linearization, from cDNA sub-cloned into plasmids incorporating Xenopus laevis β-globin 5′ and 3′ UTRs flanking the coding region to enhance translation and cRNA stability. We quantified cRNA by spectrophotometry. […] We injected defolliculated stage V and VI Xenopus laevis oocytes (Ecocyte Bioscience, Austin, TX and Xenoocyte, Dexter, MI) with KCNQ channel α subunit (5-20 ng) or GLRA1 (20 ng) cRNAs. We incubated the oocytes at 16 °C in Barth’s saline solution (Ecocyte Bioscience) containing penicillin and streptomycin, with daily washing, for 2–5 days prior to two-electrode voltage-clamp (TEVC) recording.
For recording, oocytes were placed in a small-volume oocyte bath (Warner) and viewed them with a dissection microscope. Chemicals were sourced from Sigma, Matrix Scientific and Santa Cruz. […] All stock solutions were diluted in bath solution on the day of experiments. KCNQ2/3 channel activation was screened for using either 30 µM or 100 µM concentrations of each of the six compounds, then dose responses were conducted as appropriate. Bath solution was (in mM): 96 NaCl, 4 KCl, 1 MgCl2, 1 CaCl2, 10 HEPES (pH 7.6). Compounds were introduced into the oocyte recording bath by gravity perfusion at a constant flow of 1 ml per minute for 3 min prior to recording. Pipettes were of 1–2 MΩ resistance when filled with 3 M KCl. Currents were recorded in response to voltage pulses between −120 or −80 mV and + 40 mV at 20 mV intervals from a holding potential of −80 mV, to yield current-voltage relationships, current magnitude, and for quantifying activation rate. We analyzed data using Clampfit (Molecular Devices) and Graphpad Prism software (GraphPad, San Diego, CA, USA); values are stated as mean ± SEM. We plotted raw or normalized tail currents versus prepulse voltage and fitted with a single Boltzmann function:1 g=(A1−A2)/1+exp(V12−V)∕VS+A2, where g is the normalized tail conductance, A1 is the initial value at −∞, A2 is the final value at +∞, V1/2 is the half-maximal voltage of activation and Vs the slope factor. Activation, deactivation, wash-in and washout kinetics were fitted with single exponential functions to yield a τ value.

KCNQ2 = KCNQ2 (Homo sapiens, UniProt O43526); assay: Relative ion permeability of KCNQ2; parameters: dose or concentration left out as unconfirmed
Description: According to the Goldman–Hodgkin–Katz (GHK) voltage equation:2 Erev=RT∕Fln(PK[K^+]O+PNa[Na]O+PCl[Cl]i)/(PK[K^+]i+PNa[Na]i+PCl[Cl]o), where Erev is the absolute reversal potential and P is permeability. This permits calculation of the relative permeability of each ion if concentrations on either side of the membrane are known. A modified version of this equation was used here to determine relative permeability of two ions in a system in which only the extracellular ion concentration was known. Thus, relative permeability of Rb^+, Cs^+, and Na^+ compared to K^+ ions was calculated for KCNQ2 and KCNQ3* by plotting the I/V relationships for each channel with each extracellular ion (100 mM) (using the voltage protocol shown in Fig. 9g) and comparing them to that with 100 mM extracellular K^+ ion to yield a change in reversal potential (ΔErev) for each ion compared to that of K^+. Permeability ratios for each ion (X) compared to K^+ were then calculated as3 ΔErev=Erev,X−Erev,K=lnPX/PK. […]

KCNQ2/KCNQ3-W265L = KCNQ2/KCNQ3-W265L (Homo sapiens, UniProt O43525+O43526, W265L); assay: TEVC of KCNQ2/3 with KCNQ3-W265L mutation
Description: We generated cRNA transcripts encoding human KCNQ1, KCNQ2, KCNQ3, KCNQ4, KCNQ5 or GLRA1 (NM_001146040) (GenScript, Piscataway, NJ, USA) by in vitro transcription using the T7 polymerase mMessage mMachine kit (Thermo Fisher Scientific), after vector linearization, from cDNA sub-cloned into plasmids incorporating Xenopus laevis β-globin 5′ and 3′ UTRs flanking the coding region to enhance translation and cRNA stability. We quantified cRNA by spectrophotometry. We generated mutant KCNQ2 and KCNQ3 cDNAs by site-directed mutagenesis using a QuikChange kit (Stratagene, San Diego, CA) and prepared the corresponding cRNAs as above. […]
We performed TEVC at room temperature using an OC-725C amplifier (Warner Instruments, Hamden, CT) and pClamp10 software (Molecular Devices, Sunnyvale, CA) 2–5 days after cRNA injection as described in the section above. […] Currents were recorded in response to voltage pulses between −120 or −80 mV and + 40 mV at 20 mV intervals from a holding potential of −80 mV, to yield current-voltage relationships, current magnitude, and for quantifying activation rate. We analyzed data using Clampfit (Molecular Devices) and Graphpad Prism software (GraphPad, San Diego, CA, USA); values are stated as mean ± SEM. […]

[1] = 100 µM, −60 mV, single exponential fit

tau of KCNQ2/3 current decrease during washout (KCNQ2/3; [1]): 40 s and 39 ± 10 s | tau of KCNQ2/3 current increase during wash-in (KCNQ2/3; [1]): ~ 15 s and 15 ± 3 s | increase in KCNQ2/3 current at −60 mV (KCNQ2/3; either compound alone, 1 uM): ~ fivefold | EC50 (KCNQ2/3; shift in voltage dependence of activation (ΔV0.5act), TEVC in oocytes, read-out: EC50, KCNQ2/3 activation): 51 ± 21 nM | relative Na+ permeability (compared to K+) of KCNQ2 (KCNQ2): not KCNQ2
SMILES: CS(=O)(=O)N(CC(=O)O)c1cccc(F)c1 [3FMSG]
KCNQ2/3 activation and deactivation rates (KCNQ2/3; 100 µM, single exponential fit (τ)): speeded KCNQ2/3 activation and slowed its deactivation | effect of the KCNQ3-W265L mutation within KCNQ2/3 (KCNQ2/KCNQ3-W265L): dependent on KCNQ3-W265; also recorded: eliminated effects of 3FMSG
